Data taken from EPA's CvTdb concentration-time database.

Tests used:
Rat [1] = assay: concentration in brain after dosing; details: 3 h; dosed: Fluorotelomer alcohol 8+2; 80 mg/kg; oral; Female; Harlan Sprague Dawley
Rat [2] = assay: concentration in brain after dosing; details: 12 h; dosed: Fluorotelomer alcohol 8+2; 24 mg/kg; oral; Male; Harlan Sprague Dawley
Rat [3] = assay: concentration in plasma after dosing; details: dosed: Fluorotelomer alcohol 8+2, 40 mg/kg, iv, Male, F344
Rat [4] = assay: concentration in plasma after dosing; details: 5 min; dosed: Fluorotelomer alcohol 8+2; 12 mg/kg; iv; Male; F344
Rat [5] = assay: concentration in plasma after dosing; details: dosed: Fluorotelomer alcohol 8+2, 12 mg/kg, oral, Male, Harlan Sprague Dawley
Rat [6] = assay: concentration in liver after dosing; details: 12 h; dosed: Fluorotelomer alcohol 8+2; 24 mg/kg; oral; Male; Harlan Sprague Dawley
Rat [7] = assay: concentration in liver after dosing; details: 12 h; dosed: Fluorotelomer alcohol 8+2; 80 mg/kg; oral; Female; Harlan Sprague Dawley
Rat [8] = assay: concentration in brain after dosing; details: 12 h; dosed: Fluorotelomer alcohol 8+2; 24 mg/kg; oral; Male; Harlan Sprague Dawley; remark: listed apart in the source
Rat [9] = assay: concentration in plasma after dosing; details: 2.5 min; dosed: Wyeth-14643; 2.0 mg/kg; iv; Male; Sprague-Dawley
Rat [10] = assay: concentration in plasma after dosing; details: 1 h; dosed: Wyeth-14643; 2.0 mg/kg; iv; Male; Sprague-Dawley
Rat [11] = assay: concentration in plasma after dosing; details: dosed: Wyeth-14643, 5.0 mg/kg, oral, Male, Sprague-Dawley
Rat [12] = assay: concentration in plasma after dosing; details: 3 h; dosed: Wyeth-14643; 2.0 mg/kg; oral; Male; Sprague-Dawley
Rat [13] = assay: concentration in plasma after dosing; details: 15 h; dosed: Di-n-butyl phthalate; 50 mg/kg; oral; Male; Sprague-Dawley
Rat [14] = assay: concentration in plasma after dosing; details: 2 h; dosed: Di-n-butyl phthalate; 50 mg/kg; oral; Male; Sprague-Dawley
Rat [15] = assay: concentration in plasma after dosing; details: 3 h; dosed: Di-n-butyl phthalate; 20 mg/kg; iv; Male; Sprague-Dawley
Rat [16] = assay: concentration in plasma after dosing; details: 2 h; dosed: Di-n-butyl phthalate; 100 mg/kg; oral; Male; Sprague-Dawley
Rat [17] = assay: concentration in plasma after dosing; details: 4 h; dosed: Di-n-butyl phthalate; 20 mg/kg; iv; Male; Sprague-Dawley
Rat [18] = assay: concentration in plasma after dosing; details: 0.5 h; dosed: Di-n-butyl phthalate; 100 mg/kg; oral; Male; Sprague-Dawley
Rat [19] = assay: concentration in plasma after dosing; details: 1 h; dosed: Di-n-butyl phthalate; 50 mg/kg; oral; Male; Sprague-Dawley
Rat [20] = assay: concentration in plasma after dosing; details: 10 min; dosed: Di-n-butyl phthalate; 20 mg/kg; iv; Male; Sprague-Dawley
Rat [21] = assay: concentration in plasma after dosing; details: dosed: dichloroacetic acid, 100 mg/kg, oral, Male, F344
Rat [22] = assay: concentration in kidney after dosing; details: 3360 h; dosed: Perfluorodecanoic acid; 10 mg/kg; oral; Male; Harlan Sprague Dawley
Rat [23] = assay: concentration in plasma after dosing; details: dosed: Perfluorodecanoic acid, 2 mg/kg, oral, Male, Harlan Sprague Dawley
Rat [24] = assay: concentration in kidney after dosing; details: 864 h; dosed: Perfluorodecanoic acid; 10 mg/kg; oral; Female; Harlan Sprague Dawley
Rat [25] = assay: concentration in kidney after dosing; details: 3360 h; dosed: Perfluorodecanoic acid; 10 mg/kg; oral; Male; Harlan Sprague Dawley; remark: listed apart in the source
Rat [26] = assay: concentration in brain after dosing; details: 864 h; dosed: Perfluorodecanoic acid; 10 mg/kg; oral; Female; Harlan Sprague Dawley
Rat [27] = assay: concentration in plasma after dosing; details: dosed: Perfluorodecanoic acid, 2 mg/kg, iv, Male, F344
Rat [28] = assay: concentration in liver after dosing; details: 24 h; dosed: Perfluorodecanoic acid; 10 mg/kg; oral; Male; Harlan Sprague Dawley
Rat [29] = assay: concentration in plasma after dosing; details: 40 min; dosed: Thiodiglycolic Acid; 20 mg/kg; iv; Female; Harlan Sprague Dawley
Rat [30] = assay: concentration in heart after dosing; details: 10 min; dosed: Thiodiglycolic Acid; 20 mg/kg; iv; Male; F344
Rat [31] = assay: concentration in thymus after dosing; details: 3 h; dosed: Thiodiglycolic Acid; 20 mg/kg; iv; Female; Harlan Sprague Dawley
Rat [32] = assay: concentration in thymus after dosing; details: 20 min; dosed: Thiodiglycolic Acid; 20 mg/kg; iv; Female; F344
Rat [33] = assay: concentration in heart after dosing; details: 4 h; dosed: Bis 2-Chloroethoxy Methane; 20 mg/kg; iv; Male; F344
Rat [34] = assay: concentration in liver after dosing; details: 1 h; dosed: Bis 2-Chloroethoxy Methane; 20 mg/kg; iv; Female; F344
Rat [35] = assay: concentration in thymus after dosing; details: 1 h; dosed: Bis 2-Chloroethoxy Methane; 20 mg/kg; iv; Male; F344
Rat [36] = assay: concentration in heart after dosing; details: 5 h; dosed: Bis 2-Chloroethoxy Methane; 20 mg/kg; iv; Female; F344
Rat [37] = assay: concentration in plasma after dosing; details: 10 min; dosed: Bis 2-Chloroethoxy Methane; 20 mg/kg; iv; Male; F344
Rat [38] = assay: concentration in heart after dosing; details: 3 h; dosed: Bis 2-Chloroethoxy Methane; 20 mg/kg; iv; Male; F344
Rat [39] = assay: concentration in heart after dosing; details: 10 min; dosed: Bis 2-Chloroethoxy Methane; 20 mg/kg; iv; Male; F344

OCCC(F)(F)C(F)(F)C(F)(F)C(F)(F)C(F)(F)C(F)(F)C(F)(F)C(F)(F)F [Fluorotelomer alcohol 8+2]
Details | concentration in brain [ng/g] | concentration in liver [ng/g] | concentration in plasma [ng/mL]
Rat [1] | 9550 | – | –
Rat [2] | 151 | – | –
Rat [4] | – | – | 3800
Rat [6] | – | 719 | –
Rat [7] | – | 1160 | –
Rat [8] | 221 | – | –

concentration in plasma [ng/mL]
Details | 0.25 h | 1 h | 6 h | 24 h
Rat [3] | 12700 | – | 153 | –
Rat [5] | – | 329 | – | 0.982

Cc1cccc(Nc2cc(Cl)nc(SCC(=O)O)n2)c1C
Details | concentration in plasma [ng/mL]
Rat [9] | 30500
Rat [10] | 2190
Rat [12] | 426

Rat [11]
Details | concentration in plasma [ng/mL]
2 h | 3450
6 h | 742

CCCCOC(=O)c1ccccc1C(=O)O [Mono-n-butyl phthalate]
Details | concentration in plasma [ng/mL]
Rat [13] | 530
Rat [14] | 809
Rat [15] | 1640
Rat [16] | 1290
Rat [17] | 678
Rat [18] | 55900
Rat [19] | 8650
Rat [20] | 31200

O=C(O)C(Cl)Cl [dichloroacetic acid]
Rat [21]
Details | concentration in plasma [ng/mL]
4 h | 25900
10 min | 8230

O=C(O)C(F)(F)C(F)(F)C(F)(F)C(F)(F)C(F)(F)C(F)(F)C(F)(F)C(F)(F)C(F)(F)F [Perfluorodecanoic acid]
Details | concentration in brain [ng/g] | concentration in kidney [ng/g] | concentration in liver [ng/g]
Rat [22] | – | 1240 | –
Rat [24] | – | 16700 | –
Rat [25] | – | 866 | –
Rat [26] | 1010 | – | –
Rat [28] | – | – | 105000

concentration in plasma [ng/mL]
Details | 0.5 h | 1 h | 24 h | 528 h | 1848 h | 3360 h
Rat [23] | 2500 | – | 7510 | – | 1090 | –
Rat [27] | – | 6390 | – | 2520 | – | 267

O=C(O)CSCC(=O)O [Thiodiglycolic Acid]
Details | concentration in heart [ng/g] | concentration in plasma [ng/mL] | concentration in thymus [ng/g]
Rat [29] | – | 4780 | –
Rat [30] | 8210 | – | –
Rat [31] | – | – | 2120
Rat [32] | – | – | 4680

ClCCOCOCCCl [Bis 2-Chloroethoxy Methane]
Details | concentration in heart [ng/g] | concentration in liver [ng/g] | concentration in plasma [ng/mL] | concentration in thymus [ng/g]
Rat [33] | 112 | – | – | –
Rat [34] | – | 343 | – | –
Rat [35] | – | – | – | 7380
Rat [36] | 33 | – | – | –
Rat [37] | – | – | 11000 | –
Rat [38] | 116 | – | – | –
Rat [39] | 12300 | – | – | –
